Source: patent US11358969B2, “Indole AHR inhibitors and uses thereof” (Ikena Oncology, Inc., priority 2017, dated 2022)
pIC50: −log10 of the molar value.

Key:
[1] = target: T1, AHR (UniProt P35869); test: DRE-Luciferase Reporter Assay (Example 1A); format: cell-based, murine or human; conditions: cell line and AHR activating ligand not specified
T1 construct: IC50
T1 sequence (P35869 1-848): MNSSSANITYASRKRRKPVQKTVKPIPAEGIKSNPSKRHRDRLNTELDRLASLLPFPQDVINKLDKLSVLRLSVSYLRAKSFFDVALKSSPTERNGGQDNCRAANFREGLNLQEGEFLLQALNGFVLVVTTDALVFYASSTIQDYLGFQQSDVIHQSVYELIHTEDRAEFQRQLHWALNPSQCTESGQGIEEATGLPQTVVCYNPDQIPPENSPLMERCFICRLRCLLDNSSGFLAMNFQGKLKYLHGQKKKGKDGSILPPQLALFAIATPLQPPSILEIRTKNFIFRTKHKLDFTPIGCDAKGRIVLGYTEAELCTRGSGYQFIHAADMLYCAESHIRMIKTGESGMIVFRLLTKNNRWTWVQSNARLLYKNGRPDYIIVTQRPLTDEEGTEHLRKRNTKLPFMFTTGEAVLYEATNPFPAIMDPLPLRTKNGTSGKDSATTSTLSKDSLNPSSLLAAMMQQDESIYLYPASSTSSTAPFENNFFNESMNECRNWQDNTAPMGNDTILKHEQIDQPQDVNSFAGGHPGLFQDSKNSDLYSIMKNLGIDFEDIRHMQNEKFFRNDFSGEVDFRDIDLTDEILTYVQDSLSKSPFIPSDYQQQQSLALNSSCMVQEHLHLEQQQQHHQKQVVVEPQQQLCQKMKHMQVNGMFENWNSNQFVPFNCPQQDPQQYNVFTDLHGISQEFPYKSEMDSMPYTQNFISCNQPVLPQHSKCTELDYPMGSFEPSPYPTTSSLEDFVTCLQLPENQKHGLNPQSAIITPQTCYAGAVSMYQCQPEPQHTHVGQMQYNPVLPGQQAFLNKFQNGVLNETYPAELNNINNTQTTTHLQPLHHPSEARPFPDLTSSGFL
Method: AHR binds to Dioxin Responsive Elements (DRE) upstream of genes that it activates. One measure of AHR activity is activation of a reporter gene, such as luciferase, downstream of one or multiple DRE elements. Luciferase activity will reflect activation and inhibition of AHR in the cells expressing his reporter.
Murine Hepa1-6 or Hepa-1c1c7 or other murine cell line with a DRE-luciferase reporter either stably or transiently transfected were plated in media in plates (96-well, 384-well or other plates) and incubated overnight at 37° C. in a CO2 incubator. Likewise, human HepG2 or other human cell line with a DRE-luciferase reporter either stably or transiently transfected were plated in media in plates (96-well, 384-well or other plates) and incubated overnight at 37° C. in a CO2 incubator.
The next day, an AHR activating ligand, such as TCDD, kynurenine, ITE (2-(1H-indole-3-ylcarbonyl)-4-thiazolecarboxylic methyl ester), VAF347, BNF (beta-naphthoflavone), FICZ (6-formylindolo(3,2-b) carbazole or other AHR ligands, was added with or without AHR antagonist.
Cells were incubated for 4, 15 or 24 hours or another time point and then lysed for determination of luciferase activity as a read-out of the AHR activation or inhibition. Luciferase was measured with a commercial kit such as the Promega Luciferase kit or any kit or reagents that provide the luciferin substrate for measuring luciferase activity. The level of luciferase with only activating ligand added was the maximum signal while the luciferase with no ligand was the minimum signal. IC50 values were determined as the concentration which inhibits half of the luciferase activity.

[2] = In Vitro Mouse liver S9 Metabolic Stability Assay (Example 1D); format: in vitro ADME; conditions: CD-1 mouse liver S9, 1 μM compound, 1 mg/mL S9 protein, 37° C., NADPH regenerating system, UDPGA, PAPS
In short: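 Compound at 1 μM final (0.1% DMSO) incubated at 37° C with pooled CD-1 mouse liver S9 (1 mg/mL protein) plus NADPH-regenerating system, UDPGA and PAPS. Samples at 0 and 60 min quenched in cold acetonitrile with internal standard; LC-MS/MS analyte/IS peak-area ratios give % remaining at 60 min.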

[3] = test system: CT26 murine colon carcinoma; test: Efficacy study in the mouse colorectal cancer model CT26 (Example 1G); format: in vivo; conditions: CT26 in Balb/c mice, FIG. 3
Method: CT26 is a murine colon carcinoma cell line obtained from ATCC. CT26 cells were cultured in RPMI supplemented with 10% FBS. 5×10^5 CT26 cells in 100 μl PBS were implanted subcutaneously in 6-8 week old female, Balb/c mice. Dosing for the efficacy study starts 4 days post implant: AHR antagonist was dosed orally, every day (QD) at or 10 mg/kg for 3 weeks. anti-PD-1 (BioXcell RMP1-14) was twice a week, intraperitoneally (IP) at 10 mg/kg for five total doses. Tumors were monitored by caliper measurement every 2-3 days and body weight measured three times per week.

CC(C)c1cnn2c(NCCc3c[nH]c4ccccc34)cc(-c3cncc(F)c3)nc12 [I-2, N-(2-(1H-indol-3-yl)ethyl)-5-(5-fluoropyridin-3-yl)-3-isopropylpyrazolo[1,5-a]pyrimidin-7-amine]
pIC50 [1]: > 6.30 | Mouse S9 Stability: % Remaining After 60 Minutes [2]: 13%

Cc1cnn2c(N[C@@H]3CCc4[nH]c5ccccc5c4C3)nc(-c3cncc(F)c3)nc12 [I-201, (3R)—N-[2-(5-fluoro-3-pyridyl)-8-methyl-pyrazolo[1,5-a][1,3,5]triazin-4-yl]-2,3,4,9-tetrahydro-1H-carbazol-3-amine]
Mouse S9 Stability: % Remaining After 60 Minutes [2]: 34%

Cc1cnn2c(NCCc3c[nH]c4ccccc34)cc(-c3cncc(F)c3)nc12 [I-70, 5-(5-Fluoro-3-pyridyl)-N-[2-(1H-indol-3-yl)ethyl]-3-methyl-pyrazolo[1,5-a]pyrimidin-7-amine]
Mouse S9 Stability: % Remaining After 60 Minutes [2]: 0% | Tumor growth ([3]; I-70 alone, orally QD 10 mg/kg for 3 weeks): inhibited | Tumor growth ([3]; I-70 in combination with anti-PD-1 (IP 10 mg/kg twice a week)): inhibited

CC(C)c1cnn2c(N[C@@H]3CCc4[nH]c5ccccc5c4C3)nc(-c3cncc(F)c3)nc12 [I-40, (3R)—N-[2-(5-Fluoro-3-pyridyl)-8-isopropyl-pyrazolo[1,5-a][1,3,5]triazin-4-yl]-2,3,4,9-tetrahydro-1H-carbazol-3-amine]
Mouse S9 Stability: % Remaining After 60 Minutes [2]: 87%
